# Assay results: patent publication US20210293825A1, “METHODS FOR PRECISION THERAPEUTIC TARGETING OF HUMAN CANCER CELL MOTILITY AND KITS THEREOF” (UNITED STATES GOVERNMENT AS REPRESENTED BY THE DEPARTMENT …, priority 2018, published 2021)
# What was measured:
# [1] = tested on: 442 kinases, including 400 distinct parental kinases plus mutants; test: KINOMEscan assay (Ambit Biosciences); assay type: binding; conditions: tested at 10 μM
# Excerpt: Kinase assay system #1. The KINOMEscan™ assay (Ambit Biosciences). This assay evaluates 442 kinases, including 400 distinct parental kinases plus mutants known to alter activity or responsiveness. It does so in the context of an assay that measures the ability of putative inhibitors to inhibit binding of bacterial purified kinase to immobilized phospho-acceptor protein substrate. This approach has been successfully to identify kinase interactions of several small molecule kinase inhibitors (Fabian, M. A. et al., Nat Biotechnol 23, 329-36 (2005); and Karaman, M. W. et al., Nat Biotechnol 26, 127-32 (2008)). KBU2046 was tested at 10 μM. […] There were two initial false positives (for a false positive rate of 0.4%), that were subsequently found to be negative in a dedicated follow up analysis. Specific and important negative findings include MKK4, p38 MAPK (α, β, γ and δ isoforms) and RAF1. Conclusions: there was no evidence that KBU2046 inhibits kinase function by competing for phospho-acceptor binding.
# 20 phosphatases = test: PhosphataseProfiler assay platform (Millipore); assay type: biochemical; conditions: competition with substrate protein
# Excerpt: Kinase assay system #3. KinaseProfiler™ and PhosphataseProfiler™ assay platforms (Millipore). This platform is radiometric-based (considered gold standard). It measures competition with respect to ATP for kinases and substrate protein for phosphatases. Most proteins were expressed via an insect-based system, and it evaluates a panel of 284 kinases and 20 phosphatases. […] Important negative findings include: MKK4, MKK6, p38 MAPK, MAPKAPK2, RAF1, ERK, MEK1, JNK1, 2 and 3, and numerous other MAPK cascade-associated kinases.
# NCI 60 cell line panel = NCI 60 cell line panel screening; assay type: cell-based; conditions: initial screening per DTP protocol
# Excerpt: KBU2046 was submitted to the Developmental Therapeutics Program (DTP) of the US National Cancer Institute (NCI), underwent initial screening across the NCI 60 cell line panel per DTP protocol (Shoemaker, R. H., Nat Rev Cancer 6, 813-23 (2006)) and the resultant COMPARE diagram is depicted herein.
# [2] = tested on: human PCa PC3-M cell orthotopic implants; test: Murine orthotopic implantation model of human PCa (lung metastasis); assay type: in vivo, athymic mice; conditions: mice treated as in FIG. 2a
# Protocol: Cohorts of N=12 athymic mice bearing human PCa PC3-M cell orthotopic implants (a), or of N=5 non-tumor bearing athymic mice (b), were treated with KBU2046 incorporated into chow, and resultant lung metastasis (a) or plasma KBU2046 concentration (b) measured. Values are the mean±SEM. The relationship between dose and metastasis was evaluated by two-sided ANOVA (a). FIG. 2c a comprehensive characterization of KBU2046 pharmacokinetics. CD1 mice were dosed with 100 mg KBU2046/kg via oral gavage or intravenous injection (iv), and blood collected at the indicated time points (data from mice dosed at 25 mg/kg are in FIG. 12, and corroborate 100 mg/kg findings). […] The dotted horizontal line denotes a concentration of 24 nM, which was the concentration of KBU2046 measured in the blood of mice whose metastasis were suppressed by 92% (a-b). […]
# Prostate cancer: orthotopic implantation. Orthotopic implantation of human GFP-PC3-M PCa cells into 6-8 week male Balb/c athymic mice (Charles River Laboratories) and quantification of distant metastasis was performed as described (Pavese, J. et al., J Vis Exp, e50873 (2013)). […] Metastasis were scored in a blinded fashion. Specifically, animals were assigned an ID number, resultant histologic slides contained a separate pathological ID number, slides were scored in a random fashion, after which the two numbers were linked up.
# [3] = target: T1, HSP90β/CDC37 heterocomplexes (Homo sapiens, UniProt P08238+Q16543); test: DARTS assay with HSP90β and CDC37 combined; assay type: binding
# T1 construct: made in house; host or cells: E. coli (Rosetta BL-21 for HSP90B, BL-21 DE-3 for CDC37)
# T1 sequence (P08238 whole entry): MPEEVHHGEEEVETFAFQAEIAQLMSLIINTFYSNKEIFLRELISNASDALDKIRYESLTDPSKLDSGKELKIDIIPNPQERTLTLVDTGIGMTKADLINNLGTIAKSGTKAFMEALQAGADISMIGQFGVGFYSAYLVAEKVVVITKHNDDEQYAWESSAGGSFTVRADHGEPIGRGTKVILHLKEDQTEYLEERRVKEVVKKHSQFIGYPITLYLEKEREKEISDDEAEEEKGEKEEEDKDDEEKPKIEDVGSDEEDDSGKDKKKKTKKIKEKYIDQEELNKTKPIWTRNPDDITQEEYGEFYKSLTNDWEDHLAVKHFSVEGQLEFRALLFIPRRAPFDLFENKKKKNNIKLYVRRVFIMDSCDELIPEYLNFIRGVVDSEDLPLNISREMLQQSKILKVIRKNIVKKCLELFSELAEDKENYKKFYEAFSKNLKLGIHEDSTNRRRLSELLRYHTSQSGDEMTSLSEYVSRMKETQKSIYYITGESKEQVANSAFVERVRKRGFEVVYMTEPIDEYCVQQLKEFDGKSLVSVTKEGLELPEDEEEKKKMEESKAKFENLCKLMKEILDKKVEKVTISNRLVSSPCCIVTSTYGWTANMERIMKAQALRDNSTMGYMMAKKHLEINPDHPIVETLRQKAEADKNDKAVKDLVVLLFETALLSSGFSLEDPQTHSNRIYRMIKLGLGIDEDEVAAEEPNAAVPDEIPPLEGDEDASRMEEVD
# T1 sequence (Q16543 whole entry): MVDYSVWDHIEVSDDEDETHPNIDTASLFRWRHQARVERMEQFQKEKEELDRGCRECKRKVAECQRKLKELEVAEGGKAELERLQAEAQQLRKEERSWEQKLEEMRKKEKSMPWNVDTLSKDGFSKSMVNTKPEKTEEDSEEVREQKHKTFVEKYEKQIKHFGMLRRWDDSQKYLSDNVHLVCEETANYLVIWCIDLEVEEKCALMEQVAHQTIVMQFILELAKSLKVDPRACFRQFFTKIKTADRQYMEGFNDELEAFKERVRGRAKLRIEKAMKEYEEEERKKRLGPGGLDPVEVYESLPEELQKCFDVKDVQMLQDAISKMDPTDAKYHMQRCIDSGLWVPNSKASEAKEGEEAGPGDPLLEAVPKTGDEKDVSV
# Protocol: Equimolar amounts of HSP90β and CDC37 protein were pre-incubated with KBU2046, and resultant thermolysin reaction products were detected by silver stain following SDS-PAGE.
# DARTS provides a sensitive measure of ligand-induced changes in protein structure and dynamics by measuring the ability of a ligand to protect its target from protease digestion (Lomenick, B. et al., Proc Natl Acad Sci USA 106, 21984-9 (2009)). […] The intensity of the CDC37 band increased, that of the HSP90β degradation product decreased, and both effects were statistically significant, concentration-dependent and were evident at 10 nM. […] Further, these findings also indicate that KBU2046 is not acting as a classical HSP90 inhibitor.
# Biophysical and Biochemical Binding Assays. Fluorescent thermal shift (Krishna, S. N. et al., PLoS One 8, e81504 (2013)), isothermal titration calorimetry (Chavez, J. D. et al., Mol Cell Proteomics 12, 1451-67 (2013)), and biolayer interferometry assays (Makowska-Grzyska, M. et al., Biochemistry 51, 6148-63 (2012)), were performed using MEK4EE (37-399, S257E, T261E) cloned into pMCSG7 and KRX Competent E. coli cells (Promega Inc.) and full-length HSP90B and CDC37 vectors and Rosetta BL-21 and BL-21 DE-3 competent E. coli cells, respectively. […]
compound,measurement,setting,value
"O=C1c2ccccc2OCC1c1ccc(F)cc1 (racemic) [KBU2046, (±)-3(4-fluorophenyl)chroman-4-one]",inhibition of kinase binding to immobilized phospho-acceptor substrate,[1],completely negative
same,inhibition of phosphatase activity,20 phosphatases,No evidence supports inhibition of phosphatase activity
same,cell toxicity,NCI 60 cell line panel,minimal-to-no cell toxicity
same,primary tumor growth (tumor weight),[2],does not inhibit primary tumor cell growth
same,concentration at which effects on CDC37 and HSP90β bands were evident,[3]; concentration-dependent,10 nM
same,protection from thermolysin digestion,[3]; equimolar HSP90β and CDC37,protected both proteins from digestion
